Source: patent EP0290169A2, “Diamineplatinum complexes with phosphonocarboxylate and substituted phosphonocarboxylate ligands as antitumor agents” (ENGELHARD CORPORATION, priority 1987, dated 1988)

Key:
Sarcoma 180 ascites = experiment: S180a screening (Sarcoma 180 ascites tumor model), increase in life span; type: in vivo, CFW mice; conditions: for Surv.: survivors on day of evaluation
Experimental: CFW mice, averaging 20 g, are innoculated on day zero with 0.2 mL of a freshly prepared saline suspension (0.15 M NaCI) containing 1 × 10^7 tumor cells/mL, or a total of 2 x 10^6 cells. On day I, the mice are injected with the test compound in the selected medium (usually water). Six mice are used per test dose, with six doses normally being run.
Also, on day one, two types of controls (6 mice/set are employed: (1) Normal (1 set): 0.5 mL of the solvent medium used for the test compound, and (2) Positive control (1 set): cis-[Pt(NH3)2Cl2] in saline at 8 mg/kg.
The effectiveness of a compound is measured in terms of the increase in life span (ILS) of the test animals relative to the controls calculated from the day of tumor inoculation (day zero). The day of evaluation is arbitrarily taken as that day corresponding to twice the mean life-span of the normal controls. This sets a practical upper limit of 100% on the ILS attainable. For calculation purposes, survivors on the day of evaluation are considered to have died on that day. The % ILS is formulated as: [formula]
ILS values above 50% represent activity. The positive controls must have an ILS of ≧ 50% for the test to be valid.

L1210 leukemia = experiment: L1210 screening (L1210 leukemia tumor model), increase in life span; type: in vivo, Female CDF1 mice; conditions: for Surv.: survivors
Experimental: Female CDF1 mice (16-22 g) are injected with a suspension of 1 x 10^6 tumor cells in 0.5 mL of 0.15 M saline on day zero. On day one, the mice receive the test compound in 0.5 mL of the chosen medium (usually water). Six mice were used for each test dose, with six doses normally being run. Normal controls (six mice) receive tumor on day zero and 0.5 mL of the test medium on day one. Positive controls (six mice) receive tumor on day zero and 8 mg/kg cisplatin in 0.5 mL of 0.15 M saline on day one. All compound doses are adjusted for the actual average weight of the mice involved. Testing is terminated at three times the normal control mean life span. The percent increase in lifespan (ILS) is calculated as follows: %ILS = [(mean life span (test)/mean life span(control)-I]x100 A 25% ILS or greater indicates activity. The maximum possible ILS is 200%. The positive control must have an ILS of S 25% for the test to be considered valid.
The tumor line is maintained by transfer of 5 x 10^4- cells in 0.1 mL saline every seven days. DBA/2 (18-22 g) mice are employed for tumor transfers

[1] = dose 40.00 mg/kg on day 1, vehicle water
[2] = dose 80.00 mg/kg on day 1, vehicle water
[3] = dose 160.00 mg/kg on day 1, vehicle water
[4] = dose 5.00 mg/kg on day 1, vehicle water
[5] = dose 10.00 mg/kg on day 1, vehicle water
[6] = dose 20.00 mg/kg on day 1, vehicle water
[7] = dose 320.00 mg/kg on day 1, vehicle water
[8] = dose 5.00 mg/kg on day 1, vehicle water, pH7
[9] = dose 10.00 mg/kg on day 1, vehicle water, pH7
[10] = dose 20.00 mg/kg on day 1, vehicle water, pH7
[11] = dose 40.00 mg/kg on day 1, vehicle water, pH7
[12] = dose 80.00 mg/kg on day 1, vehicle water, pH7
[13] = dose 160.00 mg/kg on day 1, vehicle water, pH7

Compound | %ILS (Sarcoma 180 ascites; [1]) | Surv. (Sarcoma 180 ascites; [1]) | %ILS (Sarcoma 180 ascites; [2]) | Surv. (Sarcoma 180 ascites; [2]) | %ILS (Sarcoma 180 ascites; [3]) | Surv. (Sarcoma 180 ascites; [3]) | %ILS (L1210 leukemia; [5]) | Surv. (L1210 leukemia; [5]) | %ILS (L1210 leukemia; [6]) | Surv. (L1210 leukemia; [6]) | %ILS (L1210 leukemia; [1]) | Surv. (L1210 leukemia; [1]) | %ILS (L1210 leukemia; [2]) | Surv. (L1210 leukemia; [2]) | %ILS (L1210 leukemia; [3]) | Surv. (L1210 leukemia; [3]) | %ILS (Sarcoma 180 ascites; [6]) | Surv. (Sarcoma 180 ascites; [6]) | also measured
NC1CCCCC1N.O=C1[O][Pt][O]P(=O)([O-])C1c1ccccc1.[Na+] (mixture of isomers) [Ex 6, Na[Pt(trans-R,R-dach)(2-phosphonophenytacetate)]] | 24% | 0/ 6 | 88% | 2/ 6 | 102% | 5/ 6 | 6% | 0/ 6 | 26% | 0/ 6 | 47% | 0/ 6 | 53% | 0/ 6 | 76% | 0/ 6 | – | – | %ILS (L1210 leukemia; [4]): 2%; Surv. (L1210 leukemia; [4]): 0/ 6
CC(N)CN.CCC1C(=O)[O][Pt][O]P1(=O)[O-].[Na+] (mixture of isomers) [Ex 8, Na[Pt(pn)(2-phosphonobutyrate)]] | 46% | 0/ 6 | 38% | 0/ 6 | 95% | 4/ 6 | -6% | 0/ 6 | -9% | 0/ 6 | 0% | 0/ 6 | -2% | 0/ 6 | 16% | 0/ 6 | 4% | 0/ 6 | %ILS (Sarcoma 180 ascites; [4]): 4%; Surv. (Sarcoma 180 ascites; [4]): 0/ 6; %ILS (Sarcoma 180 ascites; [5]): 19%; Surv. (Sarcoma 180 ascites; [5]): 0/ 6; %ILS (L1210 leukemia; [7]): -44%; Surv. (L1210 leukemia; [7]): 0/ 6
CC(N)CN.CC1C(=O)[O][Pt][O]P1(=O)[O-].[Na+] (mixture of isomers) [Ex 12, Na[Pt(pn)(2-phosphonopropionate)]] | 24% | 0/ 6 | 40% | 0/ 6 | 53% | 1/ 6 | – | – | – | – | – | – | – | – | – | – | 20% | 0/ 6 | –
N.N.O=C1[O][Pt][O]P(=O)([O-])C1c1ccccc1.[Na+] (racemic) [Ex 7, Na[cis-Pt(NHs)2(2-phosphonophenylacetate)]] | 26% | 0/ 6 | 71% | 2/ 6 | 28% | 0/ 6 | – | – | – | – | – | – | – | – | – | – | 14% | 0/ 6 | –
CC(N)CN.O=C1CP(=O)(O)[O][Pt][O]1 (racemic) [Ex 10, H[Pt(pn)(phasphonoacetate)]] | 9% | 1/ 6 | -71% | 0/ 6 | -78% | 0/ 6 | 2% | 0/ 6 | -13% | 0/ 6 | -13% | 0/ 6 | -34% | 0/ 6 | -52% | 0/ 6 | 77% | 3/ 6 | %ILS (Sarcoma 180 ascites; [7]): -79%; Surv. (Sarcoma 180 ascites; [7]): 0/ 6; %ILS (L1210 leukemia; [4]): -5%; Surv. (L1210 leukemia; [4]): 0/ 6
CCC1C(=O)[O][Pt][O]P1(=O)[O-].N.N.[Na+] (racemic) [Ex 14, Na[cis-Pt(NH3)2(2-phosphonobutyrate)]] | – | – | – | – | – | – | -10% | 0/ 6 | -8% | 0/ 6 | -15% | 0/ 6 | -5% | 0/ 6 | -67% | 0/ 6 | – | – | %ILS (L1210 leukemia; [7]): -80%; Surv. (L1210 leukemia; [7]): 0/ 6
CC1C(=O)[O][Pt][O]P1(=O)[O-].N.N.[Na+] (racemic) [Ex 15, Na[cis-Pt(NH3)2(2-phosphonopropionate)]] | -7% | 0/ 6 | -80% | 0/ 6 | -80% | 0/ 6 | – | – | – | – | – | – | – | – | – | – | 1% | 0/ 6 | %ILS (Sarcoma 180 ascites; [5]): 16%; Surv. (Sarcoma 180 ascites; [5]): 1/ 6
CCCC1C(=O)[O][Pt][O]P1(=O)[O-].N.N.[Na+] (racemic) [Ex 19, Na[cis-Pt(NH3)2(2-phosphonovalerate)]] | -85% | 0/ 6 | -95% | 0/ 6 | -95% | 0/ 6 | – | – | – | – | – | – | – | – | – | – | -74% | 0/ 6 | –
CC(C)N.CC(C)N.O=C1CP(=O)([O-])[O][Pt][O]1.[Na+] [Ex 9, Na[cis-Pt(i-PrNH2)2(phosphonoacetate)]] | -2% | 0/ 6 | -4% | 0/ 6 | 15% | 0/ 6 | – | – | – | – | – | – | – | – | – | – | 1% | 0/ 6 | %ILS (Sarcoma 180 ascites; [7]): 17%; Surv. (Sarcoma 180 ascites; [7]): 0/ 6
NCCN.O=C1[O][Pt][O]P1(=O)O [Ex 13, H[Pt(en)(phosphonoformate)]] | – | – | – | – | – | – | – | – | – | – | – | – | – | – | – | – | – | – | %ILS (Sarcoma 180 ascites; [8]): 9%; Surv. (Sarcoma 180 ascites; [8]): 0/ 6; %ILS (Sarcoma 180 ascites; [9]): 31%; Surv. (Sarcoma 180 ascites; [9]): 1/ 6; %ILS (Sarcoma 180 ascites; [10]): 63%; Surv. (Sarcoma 180 ascites; [10]): 1/ 6; %ILS (Sarcoma 180 ascites; [11]): 93%; Surv. (Sarcoma 180 ascites; [11]): 5/ 6; %ILS (Sarcoma 180 ascites; [12]): 58%; Surv. (Sarcoma 180 ascites; [12]): 2/ 6; %ILS (Sarcoma 180 ascites; [13]): -74%; Surv. (Sarcoma 180 ascites; [13]): 0/ 6
NCCN.O=C1CP(=O)(O)[O][Pt][O]1 [Ex 16, H[Pt(en)(phosphonoacetate)]] | 64% | 3/ 6 | 84% | 4/ 6 | 85% | 3/ 6 | – | – | – | – | – | – | – | – | – | – | 29% | 1/ 6 | %ILS (Sarcoma 180 ascites; [4]): -2%; %ILS (Sarcoma 180 ascites; [8]): -3%; Surv. (Sarcoma 180 ascites; [8]): 0/ 6; Surv. (Sarcoma 180 ascites; [4]): 0/ 6; %ILS (Sarcoma 180 ascites; [5]): 3%; %ILS (Sarcoma 180 ascites; [9]): 2%; Surv. (Sarcoma 180 ascites; [9]): 0/ 6; Surv. (Sarcoma 180 ascites; [5]): 0/ 6; %ILS (Sarcoma 180 ascites; [10]): 14%; Surv. (Sarcoma 180 ascites; [10]): 0/ 6; %ILS (Sarcoma 180 ascites; [11]): 72%; Surv. (Sarcoma 180 ascites; [11]): 2/ 6; %ILS (Sarcoma 180 ascites; [12]): 93%; Surv. (Sarcoma 180 ascites; [12]): 4/ 6; %ILS (Sarcoma 180 ascites; [13]): -32%; Surv. (Sarcoma 180 ascites; [13]): 1/ 6
N.N.O=C1CP(=O)([O-])[O][Pt][O]1.[Na+] [Ex 21, Na(cis-Pt(NH3)2(phosphonoacetate)]] | – | – | – | – | – | – | -10% | 0/ 6 | -5% | 0/ 6 | 13% | 0/ 6 | 12% | 0/ 6 | 10% | 0/ 6 | – | – | %ILS (L1210 leukemia; [7]): -80%; Surv. (L1210 leukemia; [7]): 0/ 6
